Values of other authors, collected in patent US20240261224A1, “FORMULATION OF A PAN-JAK INHIBITOR” (KINASET THERAPEUTICS, INC., priority 2022, published 2024).
Like-named read-outs stand apart in the source and are kept apart here. Marks after values point to notes of the source that are not given here.

Legend:
[1] = system: fractional exhaled nitric oxide (FeNO); conditions: cited from earlier work
[2] = marketed DPI; cited from earlier work

Structure (SMILES) | Mean placebo-corrected FeNO reduction ([1]; 1.0 mg QD, 1 capsule per dose, an increase in FeNO was observed) [%*] | Mean placebo-corrected FeNO reduction ([1]; 4.0 mg QD, 4 capsules per dose) [%] | Mean placebo-corrected FeNO reduction ([1]; 15.0 mg BID, 30 capsules per dose) [%] | Mean placebo-corrected FeNO reduction ([1]; 15.0 mg QD, 15 capsules per dose) [%] | MMAD (μm) [2]
CN(CCC#N)C1CCN(C(=O)Cn2cc(NC(=O)c3cnn4cccnc34)c(-c3cc(Cl)ccc3OC(F)F)n2)CC1 [GDC-0214] | 0.4 | −6.5 | −42 | −23 | 
CCC(=O)O[C@]1(C(=O)SCF)[C@H](C)C[C@H]2[C@@H]3C[C@H](F)C4=CC(=O)C=C[C@]4(C)[C@@]3(F)[C@@H](O)C[C@@]21C [fluticasone propionate] |  |  |  |  | 6-7 μm
